Assay results: patent US9062051B2, “Compounds and pharmaceutical compositions thereof for the treatment of proliferative disorders” (GALAPAGOS NV, priority 2014, dated 2015)

biological target: T1, Recombinant EphB2 (Homo sapiens, UniProt P29323); test: EphB2 assay (33P incorporation into poly GT, filter plate); assay type: biochemical; settings: read-out: EphB2 potency IC50
T1 construct: purchased Carna 08-129
T1 sequence (P29323 19-986 isoform P29323-2 limits assumed): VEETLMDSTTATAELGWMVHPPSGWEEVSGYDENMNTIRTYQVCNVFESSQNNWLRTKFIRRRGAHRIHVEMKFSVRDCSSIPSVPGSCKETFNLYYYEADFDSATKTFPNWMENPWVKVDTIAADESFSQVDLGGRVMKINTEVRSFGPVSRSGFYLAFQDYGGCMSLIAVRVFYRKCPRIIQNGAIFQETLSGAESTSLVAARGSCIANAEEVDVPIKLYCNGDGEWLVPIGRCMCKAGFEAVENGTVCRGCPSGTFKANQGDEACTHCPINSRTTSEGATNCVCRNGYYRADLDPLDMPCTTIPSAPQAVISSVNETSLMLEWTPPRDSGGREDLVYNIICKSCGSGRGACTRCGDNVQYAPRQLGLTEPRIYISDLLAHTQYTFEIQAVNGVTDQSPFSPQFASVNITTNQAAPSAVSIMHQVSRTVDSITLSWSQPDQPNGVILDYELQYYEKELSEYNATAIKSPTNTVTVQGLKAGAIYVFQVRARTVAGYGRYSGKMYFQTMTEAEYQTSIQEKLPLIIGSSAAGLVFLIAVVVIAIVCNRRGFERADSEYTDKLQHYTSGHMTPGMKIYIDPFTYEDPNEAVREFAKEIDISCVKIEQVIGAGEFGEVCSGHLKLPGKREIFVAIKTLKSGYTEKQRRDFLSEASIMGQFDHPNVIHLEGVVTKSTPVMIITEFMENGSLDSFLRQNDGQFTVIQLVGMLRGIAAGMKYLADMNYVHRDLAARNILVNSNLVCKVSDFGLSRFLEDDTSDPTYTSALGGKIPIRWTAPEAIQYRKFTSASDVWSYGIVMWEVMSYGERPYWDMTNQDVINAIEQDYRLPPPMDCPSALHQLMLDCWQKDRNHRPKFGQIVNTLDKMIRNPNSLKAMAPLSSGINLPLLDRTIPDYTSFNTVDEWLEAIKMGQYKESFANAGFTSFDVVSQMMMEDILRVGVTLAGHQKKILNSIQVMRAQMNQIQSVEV
Procedure: The principle of the assay consists of the measurement of incorporated ^33P into the substrate poly GT when phosphorylated by the enzyme EphB2 using [^33P]-γ-ATP and ATP. Unincorporated ^33P is removed by loading the samples on a filter plate (using a harvester, Perkin Elmer) and 6 subsequent washing steps. ^33P incorporated in polyGT is measured on a Topcount after addition of microscint to the filter plates (Perkin Elmer).
Recombinant EphB2 (Carna Cat#08-129, 0.6 ng per well) was incubated with 0.05 mg/mL Poly(Glu,Tyr)sodium salt (4:1), MW 20 000-50 000 (Sigma catalog number P0275) in kinase reaction buffer (10 mM MOPS pH 7.2, 5 mM DTT, 0.01% Triton-X100, 5 mM MnCl2, 0.5 mM Na3VO4, 5 mM beta-glycerolphosphate), 0.5 μM non-radioactive ATP, 0.25 μCi/25 μl ^33P-gamma-ATP (Perkin Elmer, catalog number NEG602K) final concentrations with or without 5 μL containing test compound or vehicle (DMSO, 1% final concentration), in a total volume of 25 μL, in a polypropylene 96-well plate (Greiner, V-bottom). After 45 min at 30° C., reactions were stopped by adding of 25 μL/well of 150 mM phosphoric acid. The experiment was then conducted as described for EphA7. The ability of a test compound to inhibit the kinase activity was determined using counts per minutes (cpm) measured by the Topcount as:
Cpm (cpd): cpm determined for sample with test compound present
Cpm (control): cpm determined for sample with positive control inhibitor (10 μM staurosporine)
Cpm (vehicle): cpm determined in the presence of vehicle (1% DMSO)
Dose dilution series were prepared for the compounds enabling the testing of dose-response effects in the EphB2 assay and the calculation of the IC50 for each compound. Each compound was routinely tested at concentration of 20 μM followed by a 1/5 serial dilution, 10 points in a final concentration of 1% DMSO. When potency of compound series increased, more dilutions may be prepared and/or the top concentration may be lowered (e.g. 5 μM, 1 μM).

Structure (SMILES) | IC50 [nM]
Cc1cccc(C(=O)Nc2ccc(C)c(-c3ccc4c(C(O)CN5CCOCC5)n[nH]c4n3)c2)c1 (stereo not drawn) [Compound 3, N-{3-[3-(1-Hydroxy-2-morpholin-4-yl-ethyl)-1H-pyrazolo[3,4-b]pyridin-6-yl]-4-methyl-phenyl}-3-methyl-benzamide] | 50 to 100
COc1cc(OC)cc(C(=O)Nc2ccc(C)c(-c3ccc4c(C(O)CN5CCOCC5)n[nH]c4n3)c2)c1 (stereo not drawn) [Compound 4, N-{3-[3-(1-Hydroxy-2-morpholin-4-yl-ethyl)-1H-pyrazolo[3,4-b]pyridin-6-yl]-4-methyl-phenyl}-3,5-dimethoxy-benzamide] | 50 to 100
Cc1ccc(C(=O)Nc2cccc(C(F)(F)F)c2)cc1-c1ccc2c(C(O)CN3CCOCC3)n[nH]c2n1 (stereo not drawn) [Compound 5, 3-[3-(1-Hydroxy-2-morpholin-4-yl-ethyl)-1H-pyrazolo[3,4-b]pyridin-6-yl]-4-methyl-N-(3-trifluoromethyl-phenyl)-benzamide] | > 100
COc1cc(OC)cc(C(=O)Nc2ccc(C)c(-c3ccc4c(C(C)O)n[nH]c4n3)c2)c1 (stereo not drawn) [Compound 9, N-{3-[3-(1-Hydroxy-ethyl)-1H-pyrazolo[3,4-b]pyridin-6-yl]-4-methyl-phenyl}-3,5-dimethoxy-benzamide] | 25 to 50
CCc1n[nH]c2nc(-c3cc(NC(=O)c4cc(OC)cc(OC)c4)cnc3C)ccc12 [Compound 13, N-[5-(3-Ethyl-1H-pyrazolo[3,4-b]pyridin-6-yl)-6-methyl-pyridin-3-yl]-3,5-dimethoxy-benzamide] | 50 to 100
COc1cc(OC)cc(C(=O)Nc2cnc(C)c(-c3ccc4c(C)n[nH]c4n3)c2)c1 [Compound 17, 3,5-Dimethoxy-N-[6-methyl-5-(3-methyl-1H-pyrazolo[3,4-b]pyridin-6-yl)-pyridin-3-yl]-benzamide] | 25 to 50
Cc1ccc(NC(=O)c2cccc(C(F)(F)F)c2)cc1-c1ccc2c(C(C)O)n[nH]c2n1 (stereo not drawn) [Compound 35, N-{3-[3-(1-Hydroxy-ethyl)-1H-pyrazolo[3,4-b]pyridin-6-yl]-4-methyl-phenyl}-3-trifluoromethyl-benzamide] | 50 to 100
CCc1n[nH]c2nc(-c3cc(NC(=O)c4cc(OC)cc(C(F)(F)F)c4)cnc3C)ccc12 [Compound 49, N-[5-(3-Ethyl-1H-pyrazolo[3,4-b]pyridin-6-yl)-6-methyl-pyridin-3-yl]-3-methoxy-5-trifluoromethyl-benzamide] | > 100
CCc1n[nH]c2nc(-c3cc(NC(=O)c4cc(C)cc(C)c4)cnc3C)ccc12 [Compound 50, N-[5-(3-Ethyl-1H-pyrazolo[3,4-b]pyridin-6-yl)-6-methyl-pyridin-3-yl]-3,5-dimethyl-benzamide] | > 100

Second part, the compound after the results:

IC50 [nM] | Structure (SMILES)
25 to 50 | Cc1ccc(NC(=O)c2cccc(C(F)(F)F)c2)cc1-c1ccc2c(C(O)CN3CCOCC3)n[nH]c2n1 (stereo not drawn) [Compound 2, N-{3-[3-(1-Hydroxy-2-morpholin-4-yl-ethyl)-1H-pyrazolo[3,4-b]pyridin-6-yl]-4-methyl-phenyl}-3-trifluoromethyl-benzamide]
25 to 50 | Cc1ccc(NC(=O)c2cccc(N(C)C)c2)cc1-c1ccc2c(C(O)CN3CCOCC3)n[nH]c2n1 (stereo not drawn) [Compound 6, 3-Dimethylamino-N-{3-[3-(1-hydroxy-2-morpholin-4-yl-ethyl)-1H-pyrazolo[3,4-b]pyridin-6-yl]-4-methyl-phenyl}-benzamide]
0.01 to 25 | COc1cc(OC)cc(C(=O)Nc2ccc(C)c(-c3ccc4c(C)n[nH]c4n3)c2)c1 [Compound 11, 3,5-Dimethoxy-N-[4-methyl-3-(3-methyl-1H-pyrazolo[3,4-b]pyridin-6-yl)-phenyl]-benzamide]
0.01 to 25 | Cc1cc(C)cc(C(=O)Nc2ccc(C)c(-c3ccc4c(CO)n[nH]c4n3)c2)c1 [Compound 16, N-[3-(3-Hydroxymethyl-1H-pyrazolo[3,4-b]pyridin-6-yl)-4-methyl-phenyl]-3,5-dimethyl-benzamide]
0.01 to 25 | CCc1n[nH]c2nc(-c3cc(NC(=O)c4cc(C)cc(OCCN5CCOCC5)c4)ccc3C)ccc12 [Compound 20, N-[3-(3-Ethyl-1H-pyrazolo[3,4-b]pyridin-6-yl)-4-methyl-phenyl]-3-methyl-5-(2-morpholin-4-yl-ethoxy)-benzamide]
0.01 to 25 | CCc1n[nH]c2nc(-c3cc(NC(=O)c4cc(C)cc(OCCOC)c4)ccc3C)ccc12 [Compound 21, N-[3-(3-Ethyl-1H-pyrazolo[3,4-b]pyridin-6-yl)-4-methyl-phenyl]-3-(2-methoxy-ethoxy)-5-methyl-benzamide]
0.01 to 25 | COc1cc(OC)cc(C(=O)Nc2ccc(C)c(-c3ccc4c(C5(O)CC5)n[nH]c4n3)c2)c1 [Compound 29, N-{3-[3-(1-Hydroxy-cyclopropyl)-1H-pyrazolo[3,4-b]pyridin-6-yl]-4-methyl-phenyl}-3,5-dimethoxy-benzamide]
0.01 to 25 | Cc1ccc(NC(=O)c2cccc(C(F)(F)F)c2)cc1-c1ccc2c([C@H](C)O)n[nH]c2n1 [Compound 55, N-{3-[3-((S)-1-Hydroxy-ethyl)-1H-pyrazolo[3,4-b]pyridin-6-yl]-4-methyl-phenyl}-3-trifluoromethyl-benzamide]
0.01 to 25 | Cc1ccc(NC(=O)c2cccc(C(F)(F)F)c2)cc1-c1cc(C)c2c(N)n[nH]c2n1 [Compound A, N-(3-(3-amino-4-methyl-1H-pyrazolo[3,4-b]pyridin-6-yl)-4-methylphenyl)-3-(trifluoromethyl)benzamide]
